# B1: AtSUC6Col-0 (Arabidopsis thaliana) (protein)
# chain: MSDLQANKDAAAVNRQSSSSSADLNGPSPMRKMISVASIAAGIQFGWALQLSLLTPYVQLLGVPHKWSSFIWLCGPVSGLLVQPSVGYFSDRCKSRFGRRRPFIAMGALLVAVAVVLIGYAADFGHSMGDKVDEPVKMRAVVIFALGFWILDVANNTLQGPCRAFLGDLAAGDAKKTRTANAFFSFFMAVGNVLGYAAGSYTNLYKIFPFTMTKACDIYCANLKSCFFLSITLLLVVTIIALWYVEDKQWSPKADSDNEKTPFFGEIFGAFKVMKRPMWMLLIVTALNWIAWFPFLLYDTDWMGREVYGGDSKGDDKMKKLYNQGIHVGGLGLMLNSIVLGFMSLGIEGISRKMGGAKRLWGAVNIILAVCLAMTVLVTKKAEEHRRIAGPMALPTDGIRAGALTLFALLGIPLAITFSIPFALASIISSSSGAGQGLSLGVLNMTIVIPQMVVSFGVGPIDALFGGGNLPGFVVGAIAAAISSVVAFSVLP
# notes: full-length CDS from silique cDNA; untagged in yeast CSY4000 (strain TRY1039); GFP fusion in protoplasts
# Columns and labels:
# AtSUC1 = molecular target: T1, AtSUC1 (Arabidopsis thaliana, UniProt Q39232); test: esculin fluorescence uptake into GFP-fusion expressing mesophyll protoplasts; assay type: cell-based; conditions: 1 mM esculin, W5 buffer pH 5.6
# T1 construct: gene SUC1; full-length CDS, GFP fusion, in Arabidopsis mesophyll protoplasts
# T1 sequence (Q39232 1-513): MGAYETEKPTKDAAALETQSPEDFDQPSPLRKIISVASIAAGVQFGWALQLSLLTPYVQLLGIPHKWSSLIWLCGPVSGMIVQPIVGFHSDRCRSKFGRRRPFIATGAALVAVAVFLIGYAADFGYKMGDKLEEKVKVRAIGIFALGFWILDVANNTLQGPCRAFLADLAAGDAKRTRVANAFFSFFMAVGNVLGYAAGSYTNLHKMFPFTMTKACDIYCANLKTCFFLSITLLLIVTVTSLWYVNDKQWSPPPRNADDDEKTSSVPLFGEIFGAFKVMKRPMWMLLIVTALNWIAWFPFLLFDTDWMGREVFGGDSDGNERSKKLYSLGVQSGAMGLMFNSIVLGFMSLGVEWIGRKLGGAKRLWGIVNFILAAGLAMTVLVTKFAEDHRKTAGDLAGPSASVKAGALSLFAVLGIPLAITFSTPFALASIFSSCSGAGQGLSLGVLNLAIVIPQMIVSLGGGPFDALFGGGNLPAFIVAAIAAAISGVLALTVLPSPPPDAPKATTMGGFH
# AtSUC9 = molecular target: T2, AtSUC9 (Arabidopsis thaliana, UniProt Q9FG00); test: as above; assay type: cell-based; conditions: 1 mM esculin, W5 buffer pH 5.6
# T2 construct: gene SUC9; full-length CDS, GFP-AtSUC9 fusion, in Arabidopsis mesophyll protoplasts
# T2 sequence (Q9FG00 1-491): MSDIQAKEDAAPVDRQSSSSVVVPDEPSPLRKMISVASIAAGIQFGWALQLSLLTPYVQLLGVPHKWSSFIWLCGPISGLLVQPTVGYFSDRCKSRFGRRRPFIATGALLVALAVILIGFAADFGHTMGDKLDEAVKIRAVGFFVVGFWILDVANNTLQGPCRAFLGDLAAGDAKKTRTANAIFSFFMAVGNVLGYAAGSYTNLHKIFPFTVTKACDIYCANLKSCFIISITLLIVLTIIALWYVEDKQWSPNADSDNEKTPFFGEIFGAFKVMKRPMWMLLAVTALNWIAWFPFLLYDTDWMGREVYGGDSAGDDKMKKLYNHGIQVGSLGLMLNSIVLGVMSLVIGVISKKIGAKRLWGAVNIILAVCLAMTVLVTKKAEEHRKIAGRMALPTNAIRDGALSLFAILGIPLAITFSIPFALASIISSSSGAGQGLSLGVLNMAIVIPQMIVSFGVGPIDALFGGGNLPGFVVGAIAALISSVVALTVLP
# AtSUC2 = molecular target: T3, AtSUC2 (Arabidopsis thaliana, UniProt Q39231); test: as above; assay type: cell-based; conditions: 1 mM esculin, W5 buffer pH 5.6
# T3 construct: gene SUC2; full-length CDS, C-terminal GFP fusion (AtSUC2-GFP), in Arabidopsis mesophyll protoplasts; Col-0 named for the mutant construct
# T3 sequence (Q39231 1-512): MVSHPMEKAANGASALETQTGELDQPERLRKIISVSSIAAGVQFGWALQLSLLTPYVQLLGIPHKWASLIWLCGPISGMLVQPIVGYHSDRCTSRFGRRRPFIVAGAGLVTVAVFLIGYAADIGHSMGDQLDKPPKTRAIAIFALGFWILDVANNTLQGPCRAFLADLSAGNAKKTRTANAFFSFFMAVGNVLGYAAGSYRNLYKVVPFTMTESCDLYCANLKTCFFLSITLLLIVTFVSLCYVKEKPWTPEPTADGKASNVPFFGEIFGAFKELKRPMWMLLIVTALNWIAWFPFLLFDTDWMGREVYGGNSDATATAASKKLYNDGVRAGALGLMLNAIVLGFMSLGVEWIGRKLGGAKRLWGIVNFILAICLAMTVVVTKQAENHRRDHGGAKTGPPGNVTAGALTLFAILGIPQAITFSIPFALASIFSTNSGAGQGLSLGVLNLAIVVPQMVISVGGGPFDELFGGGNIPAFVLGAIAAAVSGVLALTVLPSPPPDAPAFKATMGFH
# AtSUC6Col-0 [1] = molecular target: T4, AtSUC6Col-0 (Arabidopsis thaliana, UniProt Q6A329); test: competition of […]-sucrose uptake in yeast; esculin uptake into protoplasts; assay type: cell-based; conditions: pH 5.5; competition with 100 μM 14C-sucrose; value in figure only
# T4 construct: gene SUC6; full-length CDS from silique cDNA; untagged in yeast CSY4000 (strain TRY1039); GFP fusion in protoplasts
# T4 sequence (Q6A329 1-492): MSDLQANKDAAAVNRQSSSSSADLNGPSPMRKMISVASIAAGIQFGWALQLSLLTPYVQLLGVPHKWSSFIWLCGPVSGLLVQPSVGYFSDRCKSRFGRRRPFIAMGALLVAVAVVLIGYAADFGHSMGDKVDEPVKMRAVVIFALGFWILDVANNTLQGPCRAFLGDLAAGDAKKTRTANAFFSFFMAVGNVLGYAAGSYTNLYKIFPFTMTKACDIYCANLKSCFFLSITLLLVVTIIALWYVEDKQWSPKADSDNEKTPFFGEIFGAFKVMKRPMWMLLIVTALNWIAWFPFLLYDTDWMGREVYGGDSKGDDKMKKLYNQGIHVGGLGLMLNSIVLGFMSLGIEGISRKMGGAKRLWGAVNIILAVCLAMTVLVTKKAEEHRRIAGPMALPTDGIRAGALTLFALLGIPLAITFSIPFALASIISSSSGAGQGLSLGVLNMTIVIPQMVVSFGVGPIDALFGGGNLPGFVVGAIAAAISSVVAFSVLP
# AtSUC8 = molecular target: T5, AtSUC8 (Arabidopsis thaliana, UniProt Q9ZVK6); test: esculin fluorescence uptake into GFP-fusion expressing mesophyll protoplasts; assay type: cell-based; conditions: 1 mM esculin, W5 buffer pH 5.6
# T5 construct: gene SUC8; full-length CDS, GFP fusion, in Arabidopsis mesophyll protoplasts
# T5 sequence (Q9ZVK6 1-492): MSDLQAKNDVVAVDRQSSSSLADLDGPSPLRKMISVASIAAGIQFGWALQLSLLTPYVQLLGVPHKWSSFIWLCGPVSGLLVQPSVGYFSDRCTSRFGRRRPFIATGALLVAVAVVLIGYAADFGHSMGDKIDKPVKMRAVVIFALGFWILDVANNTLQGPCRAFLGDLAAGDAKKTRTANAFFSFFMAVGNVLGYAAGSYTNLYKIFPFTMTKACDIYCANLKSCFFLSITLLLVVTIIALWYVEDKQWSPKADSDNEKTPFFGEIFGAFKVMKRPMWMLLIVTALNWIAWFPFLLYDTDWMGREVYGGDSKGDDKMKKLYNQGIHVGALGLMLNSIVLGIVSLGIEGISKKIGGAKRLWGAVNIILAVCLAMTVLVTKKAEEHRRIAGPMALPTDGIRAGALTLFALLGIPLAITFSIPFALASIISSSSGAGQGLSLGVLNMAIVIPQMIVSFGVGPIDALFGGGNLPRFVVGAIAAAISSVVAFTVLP
# AtSUC5 = molecular target: T6, AtSUC5 (Arabidopsis thaliana, UniProt Q9C8X2); test: as above; assay type: cell-based; conditions: 1 mM esculin, W5 buffer pH 5.6
# T6 construct: gene SUC5; full-length CDS, GFP fusion, in Arabidopsis mesophyll protoplasts; Col-0 named for the mutant construct
# T6 sequence (Q9C8X2 1-512): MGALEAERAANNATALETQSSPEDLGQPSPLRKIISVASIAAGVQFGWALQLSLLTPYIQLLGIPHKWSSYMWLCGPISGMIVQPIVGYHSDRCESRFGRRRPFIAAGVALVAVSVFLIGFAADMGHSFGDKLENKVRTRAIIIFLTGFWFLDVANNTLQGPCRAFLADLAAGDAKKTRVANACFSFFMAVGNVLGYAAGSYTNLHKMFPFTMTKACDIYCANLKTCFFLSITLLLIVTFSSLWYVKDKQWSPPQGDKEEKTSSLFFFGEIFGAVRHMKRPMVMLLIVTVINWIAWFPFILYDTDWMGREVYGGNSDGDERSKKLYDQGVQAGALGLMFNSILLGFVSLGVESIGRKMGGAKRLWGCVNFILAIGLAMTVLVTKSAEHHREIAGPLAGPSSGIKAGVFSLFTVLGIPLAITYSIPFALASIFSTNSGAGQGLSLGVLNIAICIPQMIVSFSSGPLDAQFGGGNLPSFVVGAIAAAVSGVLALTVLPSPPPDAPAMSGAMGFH
# AtSUC3 = molecular target: T7, AtSUC3 (Arabidopsis thaliana, UniProt O80605); test: as above; assay type: cell-based; conditions: 1 mM esculin, W5 buffer pH 5.6
# T7 construct: gene SUC3; full-length CDS, GFP-AtSUC3 fusion, in Arabidopsis mesophyll protoplasts
# T7 sequence (O80605 1-594): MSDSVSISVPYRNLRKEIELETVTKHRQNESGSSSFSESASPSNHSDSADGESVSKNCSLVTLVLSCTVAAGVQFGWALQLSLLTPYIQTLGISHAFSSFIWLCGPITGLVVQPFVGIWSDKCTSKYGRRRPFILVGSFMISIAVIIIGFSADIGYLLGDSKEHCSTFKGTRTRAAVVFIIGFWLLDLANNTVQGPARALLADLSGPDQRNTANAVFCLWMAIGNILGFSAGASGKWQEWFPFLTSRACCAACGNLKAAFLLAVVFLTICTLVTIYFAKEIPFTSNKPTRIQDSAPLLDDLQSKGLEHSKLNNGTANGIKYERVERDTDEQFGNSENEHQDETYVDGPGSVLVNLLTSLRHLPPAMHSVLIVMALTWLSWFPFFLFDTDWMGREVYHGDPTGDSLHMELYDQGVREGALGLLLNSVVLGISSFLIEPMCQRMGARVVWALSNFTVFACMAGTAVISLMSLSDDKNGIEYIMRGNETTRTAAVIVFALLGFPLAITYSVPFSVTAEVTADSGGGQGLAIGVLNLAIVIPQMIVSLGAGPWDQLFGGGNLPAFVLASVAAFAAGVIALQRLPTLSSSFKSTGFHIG
# AtSUC6Col-0 [2] = molecular target: T4, AtSUC6Col-0; test: competition of […]-sucrose uptake in yeast; assay type: cell-based; conditions: 100 μM 14C-sucrose, maltose in 10-fold excess (1 mM), pH 5.5
# AtSUC6Col-0 [3] = molecular target: T4, AtSUC6Col-0; test: competition of […]-sucrose uptake in yeast; assay type: cell-based; conditions: 10-fold excess, pH 5.5, weak, value in figure only
# [4] = substrate: OC[C@H]1O[C@@](CO)(O[C@H]2O[C@H](CO)[C@@H](O)[C@H](O)[C@H]2O)[C@@H](O)[C@@H]1O; test: cells, lysate or membranes; assay type: cell-based, Arabidopsis thaliana; conditions: external pH 5.5, H+ symport, labelled compound
molecule,measurement,setting,value
O=c1ccc2cc(O[C@@H]3O[C@H](CO)[C@@H](O)[C@H](O)[C@H]3O)c(O)cc2o1 [esculin],esculin fluorescence uptake into GFP-fusion expressing mesophyll protoplasts,AtSUC1,"AtSUC1, AtSUC5, AtSUC6Col-0, AtSUC8, or AtSUC9 enabled the cells to accumulate esculin"
same,esculin fluorescence uptake into GFP-fusion expressing mesophyll protoplasts,AtSUC9,"AtSUC1, AtSUC5, AtSUC6Col-0, AtSUC8, or AtSUC9 enabled the cells to accumulate esculin"
same,esculin fluorescence uptake into GFP-fusion expressing mesophyll protoplasts,AtSUC2,all protoplasts labeled by AtSUC2-GFP had taken up esculin
same,competition of 14C-sucrose uptake in yeast; esculin uptake into protoplasts,AtSUC6Col-0 [1],addition of esculin greatly interfered with sucrose uptake (Figure 4E)
same,esculin fluorescence uptake into GFP-fusion expressing mesophyll protoplasts,AtSUC8,"AtSUC1, AtSUC5, AtSUC6Col-0, AtSUC8, or AtSUC9 enabled the cells to accumulate esculin"
same,esculin fluorescence uptake into GFP-fusion expressing mesophyll protoplasts,AtSUC5,"AtSUC1, AtSUC5, AtSUC6Col-0, AtSUC8, or AtSUC9 enabled the cells to accumulate esculin"
same,esculin fluorescence uptake into GFP-fusion expressing mesophyll protoplasts,AtSUC3,Protoplasts with GFP-AtSUC3 were also able to accumulate esculin
OC[C@H]1O[C@H](O[C@H]2[C@H](O)[C@@H](O)C(O)O[C@@H]2CO)[C@H](O)[C@@H](O)[C@@H]1O (stereo partly shown) [maltose],% residual 14C-sucrose uptake in 10-fold excess,AtSUC6Col-0 [2],32%
OC[C@H]1O[C@H](OC[C@H]2O[C@H](O[C@]3(CO)O[C@H](CO)[C@@H](O)[C@@H]3O)[C@H](O)[C@@H](O)[C@@H]2O)[C@H](O)[C@@H](O)[C@H]1O [raffinose],competition of 14C-sucrose uptake in yeast,AtSUC6Col-0 [3],The trisaccharide raffinose slightly interfered with sucrose uptake
B1,Km,[4],81.2 ± 2.7 µM
